Test systems include HCT-15 colon; SNB-75 CNS; DU-145 prostate; SW-620 colon; RXF 393 renal; SF-295 CNS; SF-539 CNS; NCI-H460 lung; OVCAR-3 ovarian; K-562 leukemia.
Common to all, as to assay: inhibition of tumour cell growth, NCI panel, 48 h

Several values for one entry are separate records, joined by “and”; a condition that tells them apart may be missing. Equal entries are not always repeated.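 Growth conditions: 96-well plates. Treatment: test compound, 48 hours, 5 concentrations. Analysis: linear interpolation between bracketing concentrations; unreached endpoints set to highest concentration. GI50 is the concentration that inhibits growth by half. At the TGI there is no net growth.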

As to `Cn1c(=S)c2[nH]c(SCCN3C(=O)c4ccccc4C3=O)nc2n(C)c1=O`, the TGI in the assay with HCT-15 colon, with SNB-75 CNS, with DU-145 prostate, with SW-620 colon, in the assay with RXF 393 renal and in the assay with SF-295 CNS was greater than 100 µM each time. Also, the TGI in the assay with SF-539 CNS, with NCI-H460 lung, in the assay on OVCAR-3 ovarian and in the assay with K-562 leukemia was greater than 100 µM throughout.
As for `CN1CCN(Cc2ccc3c(NNC(=O)c4ccccc4)nc4cc(F)ccc4n23)CC1`, the GI50 in the assay on HCT-15 colon was 0.0568 µM; in the assay on SNB-75 CNS it was 0.436 µM; with DU-145 prostate, 0.663 µM; in the assay on SW-620 colon, 0.519 µM; with RXF 393 renal, 0.683 µM; in the assay with SF-295 CNS it was 0.27 µM. Further, the GI50 in the assay with SF-539 CNS was 0.491 µM; in the assay on NCI-H460 lung, 0.195 µM; in the assay with OVCAR-3 ovarian, 0.337 µM; with K-562 leukemia, 0.376 µM. Besides, the TGI with HCT-15 colon is greater than 49.4 µM; in the assay with SNB-75 CNS, greater than 25.8 µM; with DU-145 prostate it was greater than 100 µM; with SW-620 colon, 22.4 µM; with RXF 393 renal it was 21.3 µM; in the assay with SF-295 CNS it was 4.89 µM. The TGI with SF-539 CNS was 8.22 µM; in the assay with NCI-H460 lung, 11 µM; with OVCAR-3 ovarian, 40.1 µM; in the assay with K-562 leukemia it was 21 µM.
For the compound `O=c1oc2ccc(-c3ccc(F)cc3F)cc2c(=O)n1-c1ccc(Cl)c(C(F)(F)F)c1`, the GI50 with HCT-15 colon is 2.04 µM; in the assay on SNB-75 CNS, 1.7 µM; in the assay with DU-145 prostate it was 3.75 µM; with SW-620 colon, 3.16 µM; with RXF 393 renal, 1.7 µM; in the assay on SF-295 CNS it was 1.81 µM. Besides, the GI50 in the assay with SF-539 CNS is 2.54 µM; with NCI-H460 lung, 2.96 µM; in the assay on OVCAR-3 ovarian, 3.17 µM; in the assay with K-562 leukemia, 2.38 µM. In addition, the TGI is 8.19 µM with HCT-15 colon; 4.2 µM in the assay with SNB-75 CNS; greater than 100 µM in the assay on DU-145 prostate; 11.7 µM in the assay with SW-620 colon; 4.59 µM in the assay on RXF 393 renal; 3.62 µM in the assay on SF-295 CNS. Besides, the TGI with SF-539 CNS was 7.09 µM; with NCI-H460 lung it was greater than 100 µM; in the assay on OVCAR-3 ovarian, greater than 100 µM; in the assay with K-562 leukemia it was greater than 100 µM.
`Nc1ccccc1C#C/C=C\C#Cc1c(F)c(F)c(F)c(F)c1F`: the GI50 was 15.1 µM in the assay on HCT-15 colon; 41.8 µM with SNB-75 CNS; 24.7 µM with DU-145 prostate; 18.7 µM in the assay with SW-620 colon; 4.74 µM with RXF 393 renal; 20.3 µM with SF-295 CNS. In addition, the GI50 in the assay with SF-539 CNS was 20.9 µM; with NCI-H460 lung, 24.4 µM; in the assay on OVCAR-3 ovarian it was 15.3 µM; in the assay with K-562 leukemia, 16.3 µM. For the same compound, the TGI is 30 µM in the assay on HCT-15 colon; greater than 100 µM with SNB-75 CNS; 79.9 µM in the assay on DU-145 prostate; 42 µM with SW-620 colon; 22 µM in the assay with RXF 393 renal; 46.6 µM in the assay on SF-295 CNS. The TGI in the assay with SF-539 CNS was 47.1 µM; in the assay on NCI-H460 lung, greater than 100 µM; in the assay with OVCAR-3 ovarian it was 32.9 µM; with K-562 leukemia, 53.7 µM.
Turning to `Cc1ccc(-c2nc(-c3cn(C)c4ncccc34)cs2)cc1`, the GI50 in the assay on HCT-15 colon was 3.01 µM; in the assay on SNB-75 CNS it was 4.16 µM; in the assay on DU-145 prostate, 7.42 µM; in the assay on SW-620 colon, 1.95 µM; in the assay on RXF 393 renal it was 2.99 µM; in the assay on SF-295 CNS it was 2.3 µM. In addition, the GI50 is 5.59 µM with SF-539 CNS, 3.43 µM with NCI-H460 lung, 3.23 µM with OVCAR-3 ovarian and 1.91 µM with K-562 leukemia. The TGI in the assay with HCT-15 colon was determined as 21.3 µM; in the assay on SNB-75 CNS it was 22.4 µM; with DU-145 prostate, 21.3 µM; in the assay on SW-620 colon it was 8.91 µM; in the assay with RXF 393 renal, 13.7 µM; with SF-295 CNS, 11.1 µM. For the same compound, the TGI was 18.7 µM with SF-539 CNS, 14.9 µM in the assay on NCI-H460 lung, 11.3 µM in the assay on OVCAR-3 ovarian and greater than 34.5 µM with K-562 leukemia.
For `C[C@@H]1COCCN1c1cc(C2([S@@](C)(=N)=O)CC2)nc(-c2ccnc3[nH]ccc23)n1`, the GI50 is 10 µM in the assay on HCT-15 colon; 2.3 µM in the assay with SNB-75 CNS; 4.71 µM in the assay with DU-145 prostate; 8 µM in the assay on SW-620 colon; 2.34 µM in the assay on RXF 393 renal; 3.35 µM in the assay on SF-295 CNS. Further, the GI50 with SF-539 CNS is 2.32 µM; in the assay with NCI-H460 lung it was 3.09 µM; in the assay on OVCAR-3 ovarian, 7.07 µM; in the assay with K-562 leukemia, 8.91 µM. The TGI in the assay with HCT-15 colon was greater than 100 µM; in the assay with SNB-75 CNS it was 28.6 µM; in the assay on DU-145 prostate it was greater than 100 µM; with SW-620 colon, greater than 100 µM; with RXF 393 renal it was 9.68 µM; with SF-295 CNS, 32.5 µM. Moreover, the TGI in the assay on SF-539 CNS is 10.6 µM; in the assay with NCI-H460 lung it was greater than 69.8 µM; in the assay with OVCAR-3 ovarian, greater than 91.1 µM; in the assay with K-562 leukemia it was greater than 100 µM.
With `O=c1cc(-c2ccccc2)oc2cc(OC/C(=N/O)c3ccc(F)cc3)ccc12`, the GI50 in the assay on HCT-15 colon is 18.5 µM; in the assay with SNB-75 CNS it was greater than 50 µM; with DU-145 prostate, 18.1 µM; in the assay on SW-620 colon, 48.1 µM; with RXF 393 renal it was 14 µM; in the assay on SF-295 CNS, 8.93 µM. The GI50 with SF-539 CNS was 11.5 µM; with NCI-H460 lung, 12.9 µM; in the assay with OVCAR-3 ovarian, 11.4 µM; with K-562 leukemia it was 27.5 µM. For the same compound, the TGI in the assay with HCT-15 colon is greater than 50 µM; in the assay with SNB-75 CNS, greater than 50 µM; with DU-145 prostate it was greater than 50 µM; with SW-620 colon, greater than 50 µM; in the assay on RXF 393 renal it was 40.2 µM; with SF-295 CNS it was 24.6 µM. Further, the TGI in the assay with SF-539 CNS is 26 µM; with NCI-H460 lung it was 44.2 µM; in the assay with OVCAR-3 ovarian, 35.6 µM; in the assay on K-562 leukemia it was greater than 50 µM.
As for `CN1CCN(CCOc2cc(OC3CCOCC3)c3c(Nc4c(Cl)ccc5c4OCO5)ncnc3c2)CC1`, the GI50 in the assay on HCT-15 colon was 4.18 µM and 3.26 µM; with SNB-75 CNS, 0.206 µM and 0.209 µM; in the assay on DU-145 prostate, 3.72 µM and 7.29 µM; in the assay on SW-620 colon, 17.5 µM and > 10 µM; in the assay on RXF 393 renal, 0.788 µM and 1.02 µM; in the assay with SF-295 CNS, 5.83 µM and > 10 µM. Also, the GI50 is 6.5 µM and 6.41 µM in the assay with SF-539 CNS; 18.6 µM and > 10 µM in the assay with NCI-H460 lung; 3.7 µM and 5.55 µM in the assay with OVCAR-3 ovarian; 0.382 µM and 0.47 µM in the assay with K-562 leukemia. In addition, the TGI in the assay with HCT-15 colon is 26.6 µM and > 10 µM; with SNB-75 CNS, 3.47 µM and > 10 µM; with DU-145 prostate, 39.7 µM and > 10 µM; in the assay with SW-620 colon, 33.6 µM and > 10 µM; in the assay with RXF 393 renal it was 12.6 µM and > 10 µM; in the assay on SF-295 CNS it was 25.3 µM and > 10 µM. The TGI in the assay with SF-539 CNS is 21.1 µM and > 10 µM; in the assay on NCI-H460 lung, 65.6 µM and > 10 µM; in the assay with OVCAR-3 ovarian, 22.2 µM and > 10 µM; in the assay with K-562 leukemia it was 9.24 µM and > 10 µM.

These data come from PubChem BioAssay (NCI).
